The results in this text go back to patent US20090118253A1, “COMPOSITIONS AND METHODS FOR TREATING DYSFUNCTIONAL UTERINE BLEEDING” (REPROS THERAPEUTICS INC., priority 2007, published 2009).

The subject of data set [1] is progesterone-induced endometrial glandular proliferation in rabbit uterus. The data set can be described thus: anti-McGinty and anti-Clauberg assays in the rabbit uterus. The class given is in vivo. From the text:
Also given in Table 1 are the relative biological activities of the same compounds in the rabbit uterus by the anti-McGinty and anti-Clauberg assays. Compound CDB-2914 (listed at the end of the Table) was used as the control or reference compound (rabbit Biological Activity=1.00) for these experiments because results of experiments using CDB-2914 have been published before (Hild-Petito et al., 1996; Passaro et al., 1997; Reel et al., 1998; Lamer et al., 2000). For the anti-McGinty test, immature female rabbits received a subcutaneous injection of 5 μg estradiol in 10% ethanol/sesame oil daily for 6 consecutive days. On day 7, animals underwent sterile abdominal surgery to ligate a 3-4 cm segment of both uterine horns. The test compound in appropriate solvent was injected intraluminally into the ligated segment of one uterine horn and vehicle alone into the other. A stimulating dose of progesterone (267 μg/day) was administered subcutaneously to each rabbit daily for the next three days to induce endometrial proliferation. All animals were sacrificed at day 10 for removal of the uterus where a segment central to the ligatures was removed and fixed in 10% neutral buffered formalin and submitted for histological processing. Five micron sections stained with hematoxylin and cosin were evaluated microscopically for the degree of endometrial glandular proliferation. The percent inhibition of endometrial proliferation for each rabbit was calculated and the mean of the group of five animals recorded. For the Anti-Clauberg test, immature female rabbits received a subcutaneous injection of 5 μg estradiol in 10% ethanol/sesame oil daily for 6 consecutive days. On day 7, animals received progesterone by subcutaneous injection (160 μg/day) and the experimental compound in appropriate vehicle orally or subcutaneously for five consecutive days. One group of rabbits received progesterone only. Twenty-four hours after the last dose, all animals were sacrificed for removal of the uterus which was cleaned of all fat and connective tissue, weighed to the nearest 0.2 mg and placed in 10% neutral buffered formalin for subsequent histological processing. Five micron sections stained with hematoxylin and eosin were evaluated microscopically for the degree of endometrial glandular proliferation. The percent inhibition of endometrial proliferation at each dose level of the test compound was derived by comparison with progesterone-stimulated animals alone. The data presented in Table 1 (rabbit Biol. Act.) reflects the average of the results obtained for each compound by the anti-McGinty and anti-Clauberg assays relative to CDB-2914.

Data set [2] deals with rabbit progesterone receptor (rbPR) and glucocorticoid receptor (rbGR). The data set can be described thus: Receptor-binding assays, ratio of relative binding affinities rbPR/rbGR. Conditions: ratio of relative binding affinities (RBA = EC50 of standard/EC50 of test compound x 100) for rbPR and rbGR. As to the method:
Certain antiprogestins were tested in receptor-binding assays for their ability to bind rabbit progesterone receptor (rbPR) and glucocorticoid receptor (rbGR). Briefly, cytosol containing PR or GR were prepared in TEGMD buffer (10 mM Tris, pH 7.2, 1.5 mM EDTA, 0.2 mM sodium molybdate, 10% glycerol, 1 mM DTT) from uterus or thymus, respectively, of estradiol-primed immature rabbits. For PR binding, the cytosol was incubated with 6 nM 1,2-[^3H]progesterone (50.0 Ci/mmole) and competitors were added at concentrations from 2 to 100 nM. For binding to GR, the cytosol was incubated with 6 nM 6,7-[^3H]-dexamethasone (40 Ci/mmol) and test compounds were added at concentrations from 20 to 100 nM. After overnight incubation at 4 C, bound and unbound [^3H] steroids were separated by addition of dextran-coated charcoal and centrifugation at 2100×g for 15 min at 4 C. Supernatants containing the [3H]-steroid receptor complexes were decanted into vials containing 4 ml Optifluor (Packard Instrument Co.), vortexed, equilibrated in a liquid scintillation counter for 30 minutes and then counted for 2 minutes. The EC50 (Effective Concentration) for each standard curve and each of the compound curves was determined by entering the counting data into a four parameter sigmoidal computer program (RiaSmart® Immunoassay Data Reduction Program, Packard Instrument Co., Meriden, Conn.). Relative binding affinity (RBA) for each compound was calculated using the following equation: EC50 of standard/EC50 of test compound×100. The standards for the PR and GR assays were unlabeled progesterone and dexamethasone, respectively. The results of these experiments are summarized in Table 1, as a ratio of the relative binding affinities of each compound for the rbPR and rbGR receptors (rbPR/rbGR).

For data set [3], the system named is pre-menopausal adult women diagnosed with endometriosis. Kind of data set: Six month endometriosis study: side effects and bleeding events. The class given is in vivo, human. As to the method: Although this was a small study and no definitive conclusions can be made from the safety data, there was no single signal of safety observed.
A similar event was not seen at the 50 mg dose during the treatment phase. Greater than normal bleeding occurred in two patients in the 50 mg CDB-4124 group after treatment was stopped and a D&C was performed in one and the other successfully managed conservatively.

Data set [4] is described as follows: Urinary estrogen levels (follicular phase) in cynomolgus monkeys. The class given is in vivo, Cynomolgus monkeys (Macaca fascicularis). The arrangement: Urinary estrogen, follicular phase, Mean: unit not given here. Conditions: for Urinary estrogen, follicular phase, Mean: CDB-4124 or RU-486 oral 1.0 mg/kg/day, Lupron IM once per month. As to the method:
Cynomolgus monkeys (Macaca fascicularis) (n=14) were treated orally for 36 weeks with CDB-4124 or RU-486 at 1.0 mg/kg/day or with placebo (control). Another group (n=14) received Lupron® IM once per month. Urinary progesterone levels were measured for each animal for one month during the middle of the study (weeks 14-17) and for the last month of the study (weeks 33-36). The results are presented below:
Urinary estrogen levels were measured for each animal of Example 6 for one month during the middle of the study (weeks 14-17) and for the last month of the study (weeks 33-36). The follicular phase results are based on 35 baseline ovulating cycles.

The nature of data set [5]: Estrogenic, androgenic, anti-estrogenic and anti-androgenic activities.

For `COCC(=O)[C@@]1(OC(C)=O)CC[C@H]2[C@@H]3CCC4=CC(=O)CCC4=C3[C@@H](c3ccc(N(C)C)cc3)C[C@@]21C` [CDB-4124, 21-methoxy-17α-acetoxy-11β-(4 N,N-dimethylaminophenyl)-19-norpregna-4,9-diene-3,20-dione], the “rabbit Biol. Act.” value in data set [1] (average of anti-McGinty and anti-Clauberg results relative to CDB-2914 (=1.00)) is reported as 3.60. Besides, the “antiprogestin activity in the rabbit uterus” value in data set [1] (in comparison to RU 486 and CDB-2914) was “strong antiprogestin activity”. Further, the rbPR/rbGR in data set [2] came out at 1.58. Also, the “cases of non-menstrual spotting and bleeding with excessive endometrial thickening needing D&C” value in data set [3] (12.5 mg and 25 mg CDB-4124 groups, treatment phase) is given as “two cases”. In addition, the “patients with greater than normal bleeding after treatment was stopped” value in data set [3] (50 mg CDB-4124 group) is “two patients”. Besides, the “non-menstrual spotting and bleeding with excessive endometrial thickening needing D&C” value in data set [3] (50 mg dose, treatment phase) was “not seen”. In addition, in data set [3] (women, six month study), the side effects entry was “generally mild”. For the same compound, in data set [4] (Week 18), the “Follicular phase estrogen Lower?” value is recorded as “No” and the “Urinary estrogen, follicular phase, Mean” value turned out to be 63.8. In addition, in data set [4] (Week 36), the “Follicular phase estrogen Lower?” value is “No” and the “Urinary estrogen, follicular phase, Mean” value is 67.3. Also, in data set [5], the “estrogenic, androgenic, anti-estrogenic, and anti-androgenic activities” value was “lack estrogenic, androgenic, anti-estrogenic, and anti-androgenic activities”.
